“And” between values parts separate entries of the source, which are not always exact repeats. Equal values may be shown once.
Target: KCNQ2/KCNQ3 (Homo sapiens, UniProt O43525+O43526)
Assay: Two-electrode voltage clamp of KCNQ2+KCNQ3 in Xenopus oocytes
Type: cell-based
Details: Q2/Q3, individual oocytes
Excerpt: KCNQ2 and KCNQ3 form a channel complex that carries M currents in neurons. Similar to KCNQ1, these KCNQ subunits require PIP2 for voltage-dependent activation. KCNQ2 alone can express functional channels in Xenopus oocytes, while KCNQ3 alone cannot. However, a single mutation, A315T, allows KCNQ3 to functionally express in Xenopus oocytes. We examined the effects of CP1 on KCNQ2, KCNQ3 with mutation A315T (denoted as KCNQ3*), KCNQ2+KCNQ3, and KCNQ2+KCNQ3* expressed in Xenopus oocytes (Fig. 5a). Similar to the effects on KCNQ1 and IKs channels, CP1 changed the amplitude of currents (Fig. 5b), shifted the G–V relation to more negative voltages (Fig. 5c), and slowed the deactivation kinetics (Fig. 5d) for all of these KCNQ channels. These CP1 effects were relatively small on KCNQ2 as compared with those on other KCNQ channels, and the effects on KCNQ2/KCNQ3* and KCNQ2/KCNQ3 complexes were closer to those on KCNQ2 alone.
Fig. 5 Subtype selectivity of CP1 on KCNQ channels. a Current traces of KCNQ channels as indicated in the absence and the presence of 10 µM CP1. […]
The whole-oocyte ionic currents were recorded with a GeneClamp 500B amplifier (Axon Instruments, CA) or iTEV90 amplifier (HEKA, Germany) and then sampled at 1 kHz and low-pass-filtered at 2 kHz. […] The Kir1.1 current was recorded with a high K^+ bath solution containing (in mM) 96 KCl, 4 NaCl, 1 CaCl2, 2 MgCl2, and 10 HEPES, pH 7.3–7.4. The HCN4 current was recorded in ND66 solution containing (in mM) 66 NaCl, 32 KCl, 1.8 CaCl2, 1 MgCl2, and 5 HEPES, pH 7.6. All the other potassium channels were recorded in ND96 solution. The currents of CaV1.2 channel were recorded in 40 mM Ba^2+ bath solution containing (in mM) 40 Ba(OH)2, 50 TEA-OH, 2 KOH, and 5 HEPES, adjusted to pH 7.4 with methanesulfonic acid. […] The HCN4 currents were recorded by a test pulse between −30 and −140 mV in 10-mV step from a holding potential of −30 mV. […]

outward current (Icp1/Ictrl) (10 µM CP1, at −10 mV): 1.7551 and 1.3309 and 1.0976 and 1.4059
Structure (SMILES): O=S(=O)([O-])Oc1c(-c2sc3c(ccc4cccc(Cl)c43)c2OS(=O)(=O)[O-])[nH]c2ccc(Br)cc12.[Na+].[Na+] [CP1, DISODIUM 5-BROMO-2-[9-CHLORO-3-(SULFONATOOXY) NAPHTHO [1,2-B] THIEN-2-YL]-1H-INDOL-3-YL SULFATE]
∆V1/2 (10 µM CP1): 15.349 mV and 10.5931 mV and 18.0231 mV and 10.5937 mV
τ deact at -120 mV (10 µM CP1 treated): 0.1194 s and 0.1528 s and 0.295 s and 0.1626 s
